# Results reported in patent US9096544B2, “Therapeutic compounds” (Wayne State University, priority 2009, dated 2015).
# Like-named read-outs stand apart in the source and are kept apart here.
# Key:
# [1] = test system: AML KG-1 human myeloid cell line; assay: Test A: apoptosis induction in AML KG-1 cell line; type: cell-based
# Source text: Inhibition of Cell Growth and Induction of Apoptosis in AML KG-1 Human Myeloid Cell Line.
# Methods for measuring the inhibition of cell growth and induction of apotosis followed literature procedures (Dawson, M. I., et al., J. Med. Chem., 2007, 50, 2622-2639).
# TF(v-SRC) cells = assay: Test B: apoptosis of TF(v-SRC) cells (acridine orange/ethidium bromide, nuclear fragmentation); type: cell-based; conditions: FIG. 2C
# Description: FIG. 2 illustrates apoptosis induction in FFMA-AML and TF(v-SRC) cells by 3-Cl-AHPC and compound 16. Cells were seeded at 1×10^4 cells/ml, grown for 24 h and then exposed to 1 μM compound 16 or 3-Cl-AHPC A) at various concentrations of the compound for 96 h and B) for increasing times of exposure. C) Induction of apoptosis by 3-Cl-AHPC, all-trans-retinoic acid, 9-cis-retinoic acid and TTNPB in FFMA-AML and TF(v-SRC) cells. The percentage of apoptotic cells was determined using acridine orange and ethidium bromide staining to determine nuclear fragmentation as described in the general biochemical and pharmacological materials and methods. The error bars represent the mean of three separate determinations +/− the standard deviation (SD).
# FFMA-AML cells were obtained from a patient with a diagnosis of AML as indicated by the immunophenotyping described in Table 1. This patient was refractory to the chemotherapy regimens consisting of cytosine arabinoside given with daunomycin as well as high-dose cytosine arabinoside. Peripheral blood samples were obtained from the patient utilizing a Wayne State University Institutional Review Board approved protocol and the leukemic blasts were isolated utilizing Ficoll hypaque. The isolated leukemic cells (representing >99% of the cells) were subsequently cultured in RPMI 1640 supplemented with 10% heat-inactivated fetal bovine serum (FBS) and growth factors interleukin 3 (IL-3), granulocyte-colony stimulating factor (G-CSF), granulocyte/macrophage colony-stimulating factor (GM-CSF), and stem cell factor (SCF) as we have previously reported, and then the cells were maintained in 10% FBS and gentamycin (Zhang Y. et al., Blood, 2003; […]:3743-3752). The TF(v-SRC) leukemia cells have been previously described (Black J. H. et al., Leukemia. 2003; 17:155-159). TF(v-SRC) cells were grown in RPMI 1640 supplemented with 10% heat inactivated FBS.
# Apoptosis of cells was determined by (1) acridine orange and ethidium bromide-staining to assess cells with nuclear fragmentation and chromatin condensation as previously described (Farhana L. et al., Cancer Res. 2006; 65:4909-4917) and (2) flow cytometry assessing Annexin V-FITC binding together with propidium iodide staining (Annexin V-FITC apoptosis Detection kit 1, BD Biosciences, San Diego, Calif.). Data acquisition was done on a FACS Calibur flow cytometer (BD) and analyzed with CellQuest software.
# Cells were grown in the presence and absence of increasing concentrations of either 3-Cl-AHPC or compound 16 and for varying periods of time. There was a progressive increase in 3-Cl-AHPC- and compound 16-mediated apoptosis in both FFMA-AML and TF(v-SRC) cells with time and with increasing concentrations of the compounds. […] We therefore tested the sensitivity of FFMA-AML and TF(v-SRC) cells to apoptosis induction by tRA, 9-cis RA, and TTNPB (FIG. 2C).
# [2] = test system: acute promyelocytic leukemia (APL); conditions: pharmacologic concentrations; cited from earlier work
# [3] = Test H: aqueous solubility by UV absorbance; type: physicochemical; conditions: thermodynamic from solid, 22° C.
# Description: Standard curves at the UV λmax (330, 350 and 345 nm for 3-Cl-AHPC, 18 and 16, respectively) were generated using 0.245, 0.163, 0.049 and 0.025 mM 3-Cl-AHPC and 0.380, 0.178, 0.053 and 0.027 mM 18 and 16, which were prepared from 1.0% (wt/vol) solutions of compounds in Me2SO. […] Measurements for maximum solubilities in distilled water (pH 5) and phosphate-buffered saline (PBS, pH 7.2) at 22° C. were made by UV absorbance using solutions obtained after saturation at higher temperatures, overnight incubation at 22° C., and centrifugation to remove undissolved material.
Compound,Apoptosis Induction (% control) 1.0 μM ([1]; treatment time 48 h) [% control],Apoptosis Induction (% control) 5.0 μM ([1]; treatment time 48 h) [% control],further results
O=C(O)/C=C/c1ccc(-c2ccc(O)c(C34CC5CC(CC(C5)C3)C4)c2)c(Cl)c1,30,55,
"CC1=C(/C=C/C(C)=C/C=C/C(C)=C/C(=O)O)C(C)(C)CCC1 [tRA, all-trans-retinoic acid]",,,induction of apoptosis (TF(v-SRC) cells): no real increase in apoptosis; patients achieving a complete remission [2]: 90%
CC(=O)Oc1ccc(-c2ccc(/C=C/C(=O)O)cn2)cc1C12CC3CC(CC(C3)C1)C2,0,0,
C/C(=C\c1ccc(C(=O)O)cc1)c1ccc2c(c1)C(C)(C)CCC2(C)C [TTNPB],,,induction of apoptosis (TF(v-SRC) cells): no real increase in apoptosis
O=C(O)/C=C/c1ccc(-c2ccc(O)c(C34CC5CC(CC(C5)C3)C4)c2)nc1,48,59,
"CCOC(=O)/C=C/c1ccc(-c2ccc(O)c(C34CC5CC(CC(C5)C3)C4)c2)nc1 [Compound 18, Ethyl(E)-3-{6-[3′-(1-adamantyl)-4′-hydroxyphenyl]-3-pyridinyl}-2-propenoate]",,,"solubility ([3]; phosphate-buffered saline, aqueous buffer, PBS pH 7.2, read-out: Solubility (μM) at 22° C. PBS (pH 7.2)): 14 µM; solubility ([3]; distilled water pH 5, read-out: Solubility (μM) at 22° C. Distilled water (pH 5)): 7 µM; melting point: 215 to 217 °C"
O=C(O)/C=C/c1cnc(-c2ccc(O)c(C34CC5CC(CC(C5)C3)C4)c2)c(Cl)c1,55,65,
CCOC(=O)/C=C/c1ccc(-c2ccc(O)c(C34CC5CC(CC(C5)C3)C4)c2)nc1 [drawing 25],55,,Apoptosis Induction (% control) 1.0 μM ([1]; treatment time 24 h): 60 % control; Apoptosis Induction (% control) 5.0 μM ([1]; treatment time 24 h): 68 nd % control
O=C(O)/C=C/c1ccc(-c2ccc(O)c(C34CC5CC(CC(C5)C3)C4)c2)cn1,36,52,
O=C(O)/C=C/c1cnc(-c2ccc(O)c(C34CC5CC(CC(C5)C3)C4)c2)cn1 [drawing 30],39,50,
O=C(O)/C=C/c1ccc(-c2ccc(O)c(C34CC5CC(CC(C5)C3)C4)c2)nn1,52,67,
O=C(O)CNc1cnc(-c2ccc(O)c(C34CC5CC(CC(C5)C3)C4)c2)nc1 [drawing 24],0,0,
"O=C(O)/C=C/c1cnc(-c2ccc(O)c(C34CC5CC(CC(C5)C3)C4)c2)cn1 [Compound 23, (E)-3-{2-[3-(1-Adamantyl)-4-hydroxyphenyl]-5-pyrazinyl}-2-propenoic Acid]",,,melting point: 296 °C (dec.)
O=C(O)/C=C/c1cnc(-c2ccc(O)c(C34CC5CC(CC(C5)C3)C4)c2)nc1 [drawing 23],40,50,
"CC1=C(/C=C/C(C)=C\C=C\C(C)=C\C(=O)O)C(C)(C)CCC1 [Compound 9-cis-RA, 9-cis-retinoic acid]",,,induction of apoptosis (TF(v-SRC) cells): no real increase in apoptosis
"O=C(O)CNc1cnc(-c2ccc(O)c(C34CC5CC(CC(C5)C3)C4)c2)nc1 [Compound 17, 2-[3-(1-Adamantyl)-4-hydroxyphenyl]-5-(carboxymethylamino)pyrimidine]",,,melting point: 235 °C (dec.)
